Assay results: publication PMC11898654, “The Na^+-K^+-ATPase alpha subunit is an entry receptor for white spot syndrome virus” (mBio, 2025)
Counter-ions that a name gives are not always drawn.

Experiments:
WSSV [1] = experiment: Endocytic inhibitors injected into shrimp, WSSV entry and replication in hemocytes; type: in vivo, White spot syndrome virus; conditions: shrimp injected with inhibitor before WSSV; for effect on WSSV entry and replication in shrimp hemocytes: qPCR and flow cytometry, entry 4 h, replication 24 h post-infection
Description: Given that viruses enter host cells by exploiting various endocytic pathways, such as clathrin-mediated endocytosis, caveolin-mediated endocytosis, and macropinocytosis ([31]), we went on to examine which of these endocytic pathways is used by WSSV to enter hemocytes. […].
Fig. S5 WSSV entry into shrimp hemocytes through multiple endocytic pathways. (A-F) Identification of endocytic pathways triggered by WSSV. Shrimps were injected with either WSSV or PBS (negative control), and hemocytes were harvested 4 hours post-infection. Hemocytes were incubated with endocytic markers TFN-AF555, CTB-AF555, and DTN-AF568, and uptake rates were analyzed by flow cytometry. Panels (A-C) display representative flow cytometry images for the uptake of TFN-AF555, CTB-AF555, and DTN-AF568, respectively. Quantified uptake rates from three independent experiments are shown in panels (D-F). (G-J) Impact of endocytic inhibitors on WSSV entry. Shrimps were injected with the inhibitors CPZ, GEN, or AMR, and hemocytes were collected 2 hours later for cytotoxicity analysis using the CCK8 kit (G). FITC-labeled or unlabeled WSSV particles were subsequently injected, and hemocytes were harvested 4 hours post-infection for flow cytometry (H) and qPCR (J) to assess WSSV entry. Data from three independent flow cytometry assays are presented in panel (I). (K) Effect of endocytic inhibitors on WSSV replication. Shrimps were injected with WSSV particles following inhibitor treatment, and hemocytes were collected 24 hours post-infection for WSSV copy number quantification via qPCR. Statistical significance was determined using a two-tailed Student’s t-test. * P < 0.05, ** P < 0.01, and *** P < 0.001.

WSSV [2] = experiment: Endocytic inhibitor treatment, WSSV entry in PvATP1A-overexpressing PAC2 cells; type: cell-based, White spot syndrome virus; conditions: 5 µM inhibitor pre-treatment 30 min, WSSV MOI = 0.1 for 1 h, qPCR, compared with cells treated with CPZ
Description: Endocytic inhibitors, chlorpromazine hydrochloride (CPZ, Cat. No. HY-B0407A), genistein (GEN, Cat. No. HY-14596), and amiloride hydrochloride (AMR, Cat. No. HY-B0285A), were purchased from MedChemexpress. Zebrafish PAC2 fibroblast cells were transfected with either the PvATP1A expression plasmid (pEGFP-N1-PvATP1A) or the control plasmid pEGFP-N1. Forty-eight hours post-transfection, cells expressing pEGFP-PvATP1A were pre-treated with 5 µM of each endocytic inhibitor (CPZ, GEN, and AMR) or DMSO (as a control) for 30 min. Following pre-treatment, cells were infected with WSSV (MOI = 0.1) for 1 h. The cells were then washed thrice with PBS, and DNA was extracted for quantification of WSSV copy numbers using qPCR. Cytotoxicity of the endocytic inhibitors on PAC2 cells was assessed using the CCK8 kit (Beyotime, China, Cat. No. C0037), following the manufacturer’s instructions.

WSSV VP28 protein = WSSV VP28 protein (White spot syndrome virus, UniProt Q9ICB7); type: binding; conditions: SPR, different concentrations of the synthetic peptides
Description: SPR experiments were conducted using a Biacore T200 system (GE Healthcare, USA). […] Regeneration of the sensor chip was performed by injecting glycine (pH 3.0) for 30 s at a flow rate of 30 µL/min. The Biacore Insight Evaluation Software application was utilized to analyze the association and dissociation rates using a steady state affinity analysis, and the equilibrium dissociation constant (KD) was determined as the ratio of the dissociation rate to the association rate.

Molecule	effect on WSSV entry and replication in shrimp hemocytes (WSSV [1])	WSSV entry, viral copy numbers in PvATP1A-overexpressing cells (WSSV [2])	ranking among the endocytic inhibitors for virus entry (WSSV [1])	change in response units (RU) of the VP28-coated chip (WSSV VP28 protein)
N=C(N)NC(=O)c1nc(Cl)c(N)nc1N [AMR, amiloride hydrochloride]	inhibited WSSV entry and replication	significantly decreased viral copy numbers	–	–
CN(C)CCCN1c2ccccc2Sc2ccc(Cl)cc21 [CPZ, chlorpromazine hydrochloride]	inhibited WSSV entry and replication	–	–	–
O=c1c(-c2ccc(O)cc2)coc2cc(O)cc(O)c12 [GEN, genistein]	inhibited WSSV entry and replication	significantly decreased viral copy numbers	most potent inhibitors of virus entry	–
MVSKGEELFT [pEGFP]	–	–	–	no changes in the response units
